Results reported in the NIST ThermoML archive (doi:10.1016/j.fluid.2015.10.034).
Numbers after ± are expanded uncertainties.

Settings: Liquid, Frequency=8 MHz, Pulse-echo method

SMILES: [2H]O[2H] [water-d2]
- speed of sound (278.21 K, 150.19 kPa): 1326 ± 0.68 m/s
- speed of sound (278.21 K, 152.01 kPa): 1326 ± 0.68 m/s
- speed of sound (278.21 K, 5021.9 kPa): 1332.5 ± 0.68 m/s
- speed of sound (278.21 K, 5025.1 kPa): 1332.5 ± 0.68 m/s
- speed of sound (278.21 K, 9983.4 kPa): 1339.3 ± 0.69 m/s
- speed of sound (278.21 K, 9986 kPa): 1339.3 ± 0.69 m/s
- speed of sound (278.21 K, 15113 kPa): 1346.4 ± 0.69 m/s
- speed of sound (278.21 K, 15117 kPa): 1346.5 ± 0.69 m/s
- speed of sound (278.21 K, 20109 kPa): 1353.6 ± 0.69 m/s
- speed of sound (278.21 K, 20152 kPa): 1353.7 ± 0.69 m/s
- speed of sound (278.22 K, 2465.2 kPa): 1329.1 ± 0.68 m/s
- speed of sound (278.22 K, 2465.6 kPa): 1329.1 ± 0.68 m/s
- speed of sound (283.21 K, 154.9 kPa): 1347.8 ± 0.69 m/s
- speed of sound (283.21 K, 156.96 kPa): 1347.8 ± 0.69 m/s
- speed of sound (283.21 K, 2494.8 kPa): 1351.1 ± 0.69 m/s
- speed of sound (283.21 K, 2498 kPa): 1351.1 ± 0.69 m/s
- speed of sound (283.21 K, 5043.1 kPa): 1354.6 ± 0.69 m/s
- speed of sound (283.21 K, 5043.6 kPa): 1354.6 ± 0.69 m/s
- speed of sound (283.21 K, 9942.4 kPa): 1361.6 ± 0.69 m/s
- speed of sound (283.21 K, 9943.6 kPa): 1361.6 ± 0.69 m/s
- speed of sound (283.21 K, 15142 kPa): 1369 ± 0.7 m/s
- speed of sound (283.21 K, 15143 kPa): 1369.1 ± 0.7 m/s
- speed of sound (283.21 K, 20195 kPa): 1376.4 ± 0.7 m/s
- speed of sound (283.21 K, 20198 kPa): 1376.4 ± 0.7 m/s
- speed of sound (293.2 K, 179.82 kPa): 1384.1 ± 0.7 m/s
- speed of sound (293.2 K, 181.19 kPa): 1384.1 ± 0.7 m/s
- speed of sound (293.2 K, 2473.1 kPa): 1387.5 ± 0.7 m/s
- speed of sound (293.2 K, 2473.2 kPa): 1387.5 ± 0.7 m/s
- speed of sound (293.2 K, 5119.8 kPa): 1391.4 ± 0.71 m/s
- speed of sound (293.2 K, 5125.6 kPa): 1391.4 ± 0.71 m/s
- speed of sound (293.2 K, 10078 kPa): 1398.8 ± 0.71 m/s
- speed of sound (293.2 K, 10086 kPa): 1398.8 ± 0.71 m/s
- speed of sound (293.2 K, 15047 kPa): 1406.2 ± 0.71 m/s
- speed of sound (293.2 K, 15052 kPa): 1406.2 ± 0.71 m/s
- speed of sound (293.2 K, 20333 kPa): 1414.2 ± 0.97 m/s
- speed of sound (293.2 K, 20361 kPa): 1414.2 ± 0.97 m/s
- speed of sound (313.2 K, 109.61 kPa): 1432.5 ± 0.72 m/s
- speed of sound (313.2 K, 109.88 kPa): 1432.5 ± 0.72 m/s
- speed of sound (313.2 K, 2458.2 kPa): 1436.3 ± 0.72 m/s
- speed of sound (313.2 K, 2468.5 kPa): 1436.3 ± 0.72 m/s
- speed of sound (313.2 K, 5110.5 kPa): 1440.5 ± 0.72 m/s
- speed of sound (313.2 K, 5110.8 kPa): 1440.5 ± 0.72 m/s
- speed of sound (313.2 K, 15060 kPa): 1456.3 ± 0.73 m/s
- speed of sound (313.2 K, 20267 kPa): 1464.5 ± 0.73 m/s
- speed of sound (313.2 K, 20276 kPa): 1464.6 ± 0.73 m/s
- speed of sound (333.2 K, 195.58 kPa): 1456.2 ± 0.73 m/s
- speed of sound (333.2 K, 211.29 kPa): 1456.2 ± 0.73 m/s
- speed of sound (333.2 K, 2499.2 kPa): 1460.1 ± 0.73 m/s
- speed of sound (333.2 K, 2499.6 kPa): 1460.1 ± 0.73 m/s
- speed of sound (333.2 K, 5054.7 kPa): 1464.5 ± 0.73 m/s
- speed of sound (333.2 K, 5055 kPa): 1464.5 ± 0.73 m/s
- speed of sound (333.2 K, 10044 kPa): 1473 ± 2.3 m/s
- speed of sound (333.2 K, 10071 kPa): 1473.1 ± 2.3 m/s
- speed of sound (333.2 K, 20122 kPa): 1490 ± 0.74 m/s
- speed of sound (333.2 K, 20126 kPa): 1490 ± 0.74 m/s
- speed of sound (353.2 K, 142.15 kPa): 1460.6 ± 0.73 m/s
- speed of sound (353.2 K, 144.59 kPa): 1460.6 ± 0.73 m/s
- speed of sound (353.2 K, 2522.3 kPa): 1465.1 ± 0.73 m/s
- speed of sound (353.2 K, 2528 kPa): 1465 ± 0.73 m/s
- speed of sound (353.2 K, 5032.1 kPa): 1469.7 ± 0.74 m/s
- speed of sound (353.2 K, 5034.1 kPa): 1469.7 ± 0.74 m/s
- speed of sound (353.2 K, 10091 kPa): 1479 ± 0.74 m/s
- speed of sound (353.2 K, 10094 kPa): 1479.1 ± 0.74 m/s
- speed of sound (353.2 K, 15060 kPa): 1488 ± 0.74 m/s
- speed of sound (353.2 K, 15062 kPa): 1488.1 ± 0.74 m/s
